# Target: T1, TLR7 (Homo sapiens, UniProt Q9NYK1)
# T1 construct: Fresh blood was collected from normal human donors; endogenous in cells; host or cells: human PBMCs from fresh donor blood
# T1 sequence (Q9NYK1 27-1049): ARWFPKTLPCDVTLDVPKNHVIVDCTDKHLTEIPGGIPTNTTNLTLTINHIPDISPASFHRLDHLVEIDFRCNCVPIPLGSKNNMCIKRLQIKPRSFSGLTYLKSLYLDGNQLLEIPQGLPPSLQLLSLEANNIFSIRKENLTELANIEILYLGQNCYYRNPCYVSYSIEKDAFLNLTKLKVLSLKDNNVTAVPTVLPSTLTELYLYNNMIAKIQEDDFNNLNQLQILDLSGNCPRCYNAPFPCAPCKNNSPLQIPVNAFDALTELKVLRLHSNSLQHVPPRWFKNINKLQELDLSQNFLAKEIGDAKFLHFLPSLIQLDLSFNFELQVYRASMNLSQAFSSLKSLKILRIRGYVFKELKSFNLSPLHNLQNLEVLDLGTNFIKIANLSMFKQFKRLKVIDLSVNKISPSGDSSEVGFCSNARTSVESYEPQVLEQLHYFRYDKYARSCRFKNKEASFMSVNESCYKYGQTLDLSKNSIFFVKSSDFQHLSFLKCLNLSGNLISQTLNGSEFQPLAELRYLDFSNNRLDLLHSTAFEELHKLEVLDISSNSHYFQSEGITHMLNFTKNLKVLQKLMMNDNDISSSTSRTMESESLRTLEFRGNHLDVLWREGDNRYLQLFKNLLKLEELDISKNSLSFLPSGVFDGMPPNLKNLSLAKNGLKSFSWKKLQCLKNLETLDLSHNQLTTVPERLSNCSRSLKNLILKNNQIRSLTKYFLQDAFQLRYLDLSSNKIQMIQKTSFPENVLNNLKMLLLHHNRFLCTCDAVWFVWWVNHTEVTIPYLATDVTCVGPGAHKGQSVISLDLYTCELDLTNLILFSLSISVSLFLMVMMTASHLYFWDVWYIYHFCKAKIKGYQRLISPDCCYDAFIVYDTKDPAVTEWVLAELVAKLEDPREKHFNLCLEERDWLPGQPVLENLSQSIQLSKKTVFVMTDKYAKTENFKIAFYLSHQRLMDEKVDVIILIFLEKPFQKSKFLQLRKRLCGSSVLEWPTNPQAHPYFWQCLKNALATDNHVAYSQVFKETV
# Assay: huPBMC TLR7 Antagonist IFNα Assay
# Type: cell-based
# Details: human PBMCs stimulated with ssRNA40 10 μg/mL (DOTAP), 14-16 hrs; IFNα2b AlphaLISA read-out
# In short: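 Human PBMCs from fresh donor blood (150,000 cells/well) stimulated 14–16 h at 37 °C with DOTAP-complexed ssRNA40 (final 1 μg/ml for TLR8, 10 μg/mL for TLR7) or ODN2216 (final 0.3 μM, TLR9), 0.25% DMSO, ten-point 1/3 compound dilutions. Supernatant IL-6 read by HTRF (TLR8); IFNα by IFNα2b AlphaLISA (TLR7/TLR9).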
row,SMILES,IC50 [nM]
1,"Cc1cc(N2CCc3c(c(C)nn3CC34CCC(N5C[C@@H](C)O[C@H](C)C5)(CC3)CC4)C2)c2cnn(C)c2n1 [compound 113, (2R,6R)-4-(4-((5-(1,6-dimethyl-1H-pyrazolo[3,4-b]pyridin-4-yl)-3-methyl-4,5,6,7-tetrahydro-1H-pyrazolo[4,3-c]pyridin-1-yl)methyl)bicyclo[2.2.2]octan-1-yl)-2,6-dimethylmorpholine]",53
2,"CCNCC(=O)NC12CCC(Cn3nc(C)c4c3CCN(c3cc(C)nc5c3cnn5C)C4)(CC1)CC2 [compound 114, N-(4-((5-(1,6-dimethyl-1H-pyrazolo[3,4-b]pyridin-4-yl)-3-methyl-4,5,6,7-tetrahydro-1H-pyrazolo[4,3-c]pyridin-1-yl)methyl)bicyclo[2.2.2]octan-1-yl)-2-(ethylamino)acetamide]",10
3,"Cc1cc(N2CCc3c(c(C)nn3CC34CCC(NC(=O)CCN)(CC3)CC4)C2)c2cnn(C)c2n1 [compound 115, 3-amino-N-(4-((5-(1,6-dimethyl-1H-pyrazolo[3,4-b]pyridin-4-yl)-3-methyl-4,5,6,7-tetrahydro-1H-pyrazolo[4,3-c]pyridin-1-yl)methyl)bicyclo[2.2.2]octan-1-yl)propanamide]",10
4,"Cc1cc(N2CCc3c(c(C)nn3CC34CCC(N5CC6(COC6)C5)(CC3)CC4)C2)c2cnn(C)c2n1 [compound 116, 6-(4-((5-(1,6-dimethyl-1H-pyrazolo[3,4-b]pyridin-4-yl)-3-methyl-4,5,6,7-tetrahydro-1H-pyrazolo[4,3-c]pyridin-1-yl)methyl)bicyclo[2.2.2]octan-1-yl)-2-oxa-6-azaspiro[3.3]heptane]",9
5,"CN[C@H](C)C(=O)NC12CCC(Cn3nc(C)c4c3CCN(c3cc(C)nc5c3cnn5C)C4)(CC1)CC2 [compound 117, (R)-N-(4-((5-(1,6-dimethyl-1H-pyrazolo[3,4-b]pyridin-4-yl)-3-methyl-4,5,6,7-tetrahydro-1H-pyrazolo[4,3-c]pyridin-1-yl)methyl)bicyclo[2.2.2]octan-1-yl)-2-(methylamino)propanamide]",2
6,CN[C@@H](C)C(=O)NC12CCC(Cn3nc(C)c4c3CCN(c3cc(C)nc5c3cnn5C)C4)(CC1)CC2 [compound 118],2
7,"CNCC(=O)NC12CCC(Cn3nc(C)c4c3CCN(c3cc(C)nc5c3cnn5C)C4)(CC1)CC2 [compound 121, N-(4-((5-(1,6-dimethyl-1H-pyrazolo[3,4-b]pyridin-4-yl)-3-methyl-4,5,6,7-tetrahydro-1H-pyrazolo[4,3-c]pyridin-1-yl)methyl)bicyclo[2.2.2]octan-1-yl)-2-(methylamino)acetamide]",5
8,"Cc1cc(N2CCc3c(c(C)nn3CC34CCC(NCC(C)(C)O)(CC3)CC4)C2)c2cnn(C)c2n1 [compound 123, 1-((4-((5-(1,6-dimethyl-1H-pyrazolo[3,4-b]pyridin-4-yl)-3-methyl-4,5,6,7-tetrahydro-1H-pyrazolo[4,3-c]pyridin-1-yl)methyl)bicyclo[2.2.2]octan-1-yl)amino)-2-methylpropan-2-ol]",24
9,"CCNCC(=O)NC12CCC(Cn3nc(C)c4c3CCN(c3cc(C)nc5cn[nH]c35)C4)(CC1)CC2 [compound 124, 2-(ethylamino)-N-(4-((3-methyl-5-(5-methyl-1H-pyrazolo[4,3-b]pyridin-7-yl)-4,5,6,7-tetrahydro-1H-pyrazolo[4,3-c]pyridin-1-yl)methyl)bicyclo[2.2.2]octan-1-yl)acetamide]",1040
10,"Cc1cc(N2CCc3c(c(C)nn3CC34CCC(NC(=O)C5CNCCO5)(CC3)CC4)C2)c2cnn(C)c2n1 (stereo not shown) [compound 125, N-(4-((5-(1,6-dimethyl-1H-pyrazolo[3,4-b]pyridin-4-yl)-3-methyl-4,5,6,7-tetrahydro-1H-pyrazolo[4,3-c]pyridin-1-yl)methyl)bicyclo[2.2.2]octan-1-yl)morpholine-2-carboxamide]",4
11,"CCNCCC(=O)NC12CCC(Cn3nc(C)c4c3CCN(c3cc(C)nc5c3cnn5C)C4)(CC1)CC2 [compound 126, N-(4-((5-(1,6-dimethyl-1H-pyrazolo[3,4-b]pyridin-4-yl)-3-methyl-4,5,6,7-tetrahydro-1H-pyrazolo[4,3-c]pyridin-1-yl)methyl)bicyclo[2.2.2]octan-1-yl)-3-(ethylamino)propanamide]",20
12,"CCNC12CCC(Cn3nc(C)c4c3CCN(c3ccnc(-c5ccccc5)c3)C4)(CC1)CC2 [compound 127, N-ethyl-4-((3-methyl-5-(2-phenylpyridin-4-yl)-4,5,6,7-tetrahydro-1H-pyrazolo[4,3-c]pyridin-1-yl)methyl)bicyclo[2.2.2]octan-1-amine]",259
13,"Cc1cc(N2CCc3c(c(C)nn3CC34CCC(N5CCOC[C@@H]5C)(CC3)CC4)C2)c2cnn(C)c2n1 [compound 128, (S)-4-(4-((5-(1,6-dimethyl-1H-pyrazolo[3,4-b]pyridin-4-yl)-3-methyl-4,5,6,7-tetrahydro-1H-pyrazolo[4,3-c]pyridin-1-yl)methyl)bicyclo[2.2.2]octan-1-yl)-3-methylmorpholine]",6
14,"Cc1cc(N2CCc3c(c(C)nn3CC34CCC(N5CCOC[C@H]5C)(CC3)CC4)C2)c2cnn(C)c2n1 [compound 129, (R)-4-(4-((5-(1,6-dimethyl-1H-pyrazolo[3,4-b]pyridin-4-yl)-3-methyl-4,5,6,7-tetrahydro-1H-pyrazolo[4,3-c]pyridin-1-yl)methyl)bicyclo[2.2.2]octan-1-yl)-3-methylmorpholine]",8
15,"COCCNC12CCC(Cn3nc(C)c4c3CCN(c3ccnc(-c5ccccc5)c3)C4)(CC1)CC2 [compound 130, N-(2-methoxyethyl)-4-((3-methyl-5-(2-phenylpyridin-4-yl)-4,5,6,7-tetrahydro-1H-pyrazolo[4,3-c]pyridin-1-yl)methyl)bicyclo[2.2.2]octan-1-amine]",1330
16,"Cc1cc(N2CCc3c(c(C)nn3CC34CCC(NC(=O)C5CNC5)(CC3)CC4)C2)c2cnn(C)c2n1 [compound 131, N-(4-((5-(1,6-dimethyl-1H-pyrazolo[3,4-b]pyridin-4-yl)-3-methyl-4,5,6,7-tetrahydro-1H-pyrazolo[4,3-c]pyridin-1-yl)methyl)bicyclo[2.2.2]octan-1-yl)azetidine-3-carboxamide]",3
17,"CCN(C)CC(=O)NC12CCC(Cn3nc(C)c4c3CCN(c3cc(C)nc5c3cnn5C)C4)(CC1)CC2 [compound 132, N-(4-((5-(1,6-dimethyl-1H-pyrazolo[3,4-b]pyridin-4-yl)-3-methyl-4,5,6,7-tetrahydro-1H-pyrazolo[4,3-c]pyridin-1-yl)methyl)bicyclo[2.2.2]octan-1-yl)-2-(ethyl(methyl)amino)acetamide]",< 0.508
18,"[2H]C([2H])([2H])N(CC(=O)NC12CCC(Cn3nc(C)c4c3CCN(c3cc(C)nc5c3cnn5C)C4)(CC1)CC2)C([2H])([2H])[2H] [compound 134, 2-(bis(trideuteromethyl)amino)-N-(4-((5-(1,6-dimethyl-1H-pyrazolo[3,4-b]pyridin-4-yl)-3-methyl-4,5,6,7-tetrahydro-1H-pyrazolo[4,3-c]pyridin-1-yl)methyl)bicyclo[2.2.2]octan-1-yl)acetamide]",1
19,"Cc1cc(N2CCc3c(c(C)nn3CC34CCC(NCC5(CO)COC5)(CC3)CC4)C2)c2cnn(C)c2n1 [compound 137, (3-(((4-((5-(1,6-dimethyl-1H-pyrazolo[3,4-b]pyridin-4-yl)-3-methyl-4,5,6,7-tetrahydro-1H-pyrazolo[4,3-c]pyridin-1-yl)methyl)bicyclo[2.2.2]octan-1-yl)amino)methyl)oxetan-3-yl)methanol]",72

# From patent US20240376099A1, “COMPOUNDS AND COMPOSITIONS AS INHIBITORS OF ENDOSOMAL TOLL-LIKE RECEPTORS” (Novartis AG, priority 2016, published 2024)
